In US20100267561A1, “HERBICIDAL PYRIDAZINONE DERIVATIVES” (priority 2007, published 2010):
Read-outs that look alike come from different tables or passages of the source.

What was measured:
Format in all cases: in vivo
[1] = tested on: blackgrass (Alopecurus myosuroides); assay: Test B pre-/postemergence plant response; details: for pest or weed control at 31 g/ha: 31 g ai/ha; for pest or weed control at 62 g/ha: 62 g ai/ha, 100 complete control
In short: (§1)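 Seeds were sown and sprayed preemergence, while plants at 2 to 18 cm (1- to 4-leaf stage) got postemergence sprays. Compounds were formulated in a non-phytotoxic solvent mixture with surfactant. After 13 to 15 days in a greenhouse, injury was rated visually against untreated controls, 0 (no effect) to 100 (complete control).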

[2] = tested on: morningglory (Ipomoea coccinea); assay: Test B pre-/postemergence plant response; details: for pest or weed control at 31 g/ha / pest or weed control at 62 g/ha: Ipomoea, read-out: Plant response rating, Morningglory; for pest or weed control at 31 g/ha: 31 g ai/ha; for pest or weed control at 62 g/ha: 62 g ai/ha, 100 complete control
In short: as §1

[3] = tested on: large crabgrass (Digitaria sanguinalis); assay: Test B pre-/postemergence plant response; details: for pest or weed control at 31 g/ha: 31 g ai/ha; for pest or weed control at 62 g/ha: 62 g ai/ha, 100 complete control
In short: as §1

[4] = tested on: johnsongrass (Sorghum halepense); assay: Test B pre-/postemergence plant response; details: for pest or weed control at 31 g/ha / pest or weed control at 62 g/ha: Sorghum halepense, read-out: Plant response rating, Johnsongrass; for pest or weed control at 31 g/ha: 31 g ai/ha; for pest or weed control at 62 g/ha: 62 g ai/ha, 100 complete control
In short: as §1

[5] = tested on: common ragweed (Ambrosia elation); assay: Test B pre-/postemergence plant response; details: for pest or weed control at 31 g/ha / pest or weed control at 62 g/ha: Ambrosia, read-out: Plant response rating, Ragweed; for pest or weed control at 31 g/ha: 31 g ai/ha; for pest or weed control at 62 g/ha: 62 g ai/ha, 100 complete control
In short: as §1

[6] = tested on: common (oilseed) sunflower (Helianthus annuus); assay: Test B pre-/postemergence plant response; details: Preemergence; for Sunflower plant response rating: scale 0 to 100
In short: as §1

[7] = tested on: catchweed bedstraw (Galium aparine); assay: Test B pre-/postemergence plant response; details: Preemergence; for Galium plant response rating: scale 0 to 100
In short: as §1

[8] = tested on: wild oat (Avena fatua); assay: Test B pre-/postemergence plant response; details: for pest or weed control at 31 g/ha / pest or weed control at 62 g/ha: Avena fatua, read-out: Plant response rating, Oat, Wild; for pest or weed control at 31 g/ha: 31 g ai/ha; for pest or weed control at 62 g/ha: 62 g ai/ha, 100 complete control
In short: as §1

[9] = tested on: downy bromegrass (Bromus tectorum); assay: Test B pre-/postemergence plant response; details: for pest or weed control at 31 g/ha: 31 g ai/ha; for pest or weed control at 62 g/ha: 62 g ai/ha, 100 complete control
In short: as §1

[10] = tested on: Italian ryegrass (Lolium multiflorum); assay: Test B pre-/postemergence plant response; details: for pest or weed control at 31 g/ha / pest or weed control at 62 g/ha: Lolium multiflorum, read-out: Plant response rating, Ryegrass, Italian; for pest or weed control at 31 g/ha: 31 g ai/ha; for pest or weed control at 62 g/ha: 62 g ai/ha, 100 complete control
In short: as §1

[11] = tested on: pigweed (Amaranthus retroflexus); assay: Test B pre-/postemergence plant response; details: for pest or weed control at 31 g/ha / pest or weed control at 62 g/ha: Amaranthus retroflexus, read-out: Plant response rating, Pigweed; for pest or weed control at 31 g/ha: 31 g ai/ha; for pest or weed control at 62 g/ha: 62 g ai/ha, 100 complete control
In short: as §1

[12] = tested on: eastern black (E.B.) nightshade (Solanum ptycanthum); assay: Test B pre-/postemergence plant response; details: Preemergence; for Nightshade, E. B. plant response rating: scale 0 to 100
In short: as §1

[13] = tested on: barnyardgrass (Echinochloa crus-galli); assay: Test B flooded paddy test plant response; details: Echinochloa crus-galli, Flood (flooded paddy test), scale 0 to 100, 0 no effect, 100 complete control, read-out: Plant response rating, Barnyardgrass
In short: (§2)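 Rice, umbrella sedge, ducksalad and barnyardgrass at 2-leaf stage; pots flooded to 3 cm, compounds applied into paddy water, depth held throughout. Greenhouse 13 to 15 days, then visual rating vs untreated controls on 0–100 scale (0 no effect, 100 complete control); dash means no test result.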

[14] = tested on: rice (Oryza sativa); assay: Test B flooded paddy test plant response; details: Oryza sativa, Flood (flooded paddy test), scale 0 to 100, 0 no effect, 100 complete control, read-out: Plant response rating, Rice
In short: as §2

[15] = 8 g ai/ha, postemergence, 0-100 scale
[16] = Preemergence, 8 g ai/ha, scale 0 to 100
[17] = Preemergence, 16 g ai/ha, scale 0 to 100
[18] = 16 g ai/ha, postemergence, 0-100 scale
[19] = post-emergence, Postemergence, scale 0 to 100
[20] = post-emergence, Postemergence, scale 0 to 100, 0 no effect
[21] = pre-emergence, Preemergence, scale 0 to 100 (0 no effect, 100 complete control)
[22] = pre-emergence, Preemergence, 0 to 100 scale, 0 no effect

For `Cc1nn(C)c(=O)c(-n2nc(-c3ccc(C(F)(F)F)cc3)cc2C)c1O` [Compound 75, 5-hydroxy-2,6-dimethyl-4-[5-methyl-3-[4-(trifluoromethyl)phenyl]-1H-pyrazol-1-yl]-3(2H)-pyridazinone], the “Blackgrass plant response rating” value [1, 15] was 10, the pest or weed control at 16 g/ha ([1]; Alopecurus myosuroides, post-emergence, Postemergence, 16 g ai/ha, scale 0 to 100, read-out: Plant response rating, Blackgrass) was 50% and the pest or weed control at 31 g/ha ([1]; Alopecurus myosuroides, post-emergence, Postemergence, scale 0 to 100, read-out: Plant response rating, Blackgrass) was 65%. For the same molecule, the pest or weed control at 62 g/ha ([1]; Alopecurus myosuroides, post-emergence, Postemergence, scale 0 to 100, 0 no effect, read-out: Plant response rating, Blackgrass) was 95%, the pest or weed control at 31 g/ha ([1]; Alopecurus myosuroides, pre-emergence, Preemergence, scale 0 to 100 (0 no effect, 100 complete control), read-out: Plant response rating, Blackgrass) was 60% and the pest or weed control at 62 g/ha ([1]; Alopecurus myosuroides, pre-emergence, Preemergence, 0 to 100 scale, 0 no effect, read-out: Plant response rating, Blackgrass) was 90%. For the same molecule, the “Blackgrass plant response rating” value [1, 16] was 0, the “Blackgrass plant response rating” value [1, 17] was 20 and the “Morningglory plant response rating” value [2, 15] was 0. The “Morningglory plant response rating” value [2, 18] was 0, the pest or weed control at 31 g/ha [2, 19] was 0% and the pest or weed control at 62 g/ha [2, 20] was 0%. The pest or weed control at 31 g/ha [2, 21] was 0%, the pest or weed control at 62 g/ha [2, 22] was 0% and the “Morningglory plant response rating” value [2, 16] was 0. The “Morningglory plant response rating” value [2, 17] was 0, the “Crabgrass, Large plant response rating” value [3, 15] was 0 and the pest or weed control at 16 g/ha ([3]; Digitaria sanguinalis, post-emergence, Postemergence, 16 g ai/ha, scale 0 to 100, read-out: Plant response rating, Crabgrass, Large) was 0%. For the same molecule, the pest or weed control at 31 g/ha ([3]; Digitaria sanguinalis, post-emergence, Postemergence, scale 0 to 100, read-out: Plant response rating, Crabgrass, Large) was 30%, the pest or weed control at 62 g/ha ([3]; Digitaria sanguinalis, post-emergence, Postemergence, scale 0 to 100, 0 no effect, read-out: Plant response rating, Crabgrass, Large) was 60% and the pest or weed control at 31 g/ha ([3]; Digitaria sanguinalis, pre-emergence, Preemergence, scale 0 to 100 (0 no effect, 100 complete control), read-out: Plant response rating, Crabgrass, Large) was 25%. For the same molecule, the pest or weed control at 62 g/ha ([3]; Digitaria sanguinalis, pre-emergence, Preemergence, 0 to 100 scale, 0 no effect, read-out: Plant response rating, Crabgrass, Large) was 55%, the “Crabgrass, Large plant response rating” value [3, 16] was 0 and the “Crabgrass, Large plant response rating” value [3, 17] was 0. The “Johnsongrass plant response rating” value [4, 15] was 75, the “Johnsongrass plant response rating” value [4, 18] was 80 and the “Johnsongrass plant response rating” value [4, 16] was 0. For the same molecule, the “Johnsongrass plant response rating” value [4, 17] was 75, the pest or weed control at 31 g/ha [4, 19] was 98% and the pest or weed control at 62 g/ha [4, 20] was 100%. The pest or weed control at 31 g/ha [4, 21] was 85%, the pest or weed control at 62 g/ha [4, 22] was 95% and the “Ragweed plant response rating” value [5, 15] was 0. For the same molecule, the “Ragweed plant response rating” value [5, 18] was 0, the pest or weed control at 31 g/ha [5, 19] was 0% and the pest or weed control at 62 g/ha [5, 20] was 0%. For the same molecule, the pest or weed control at 31 g/ha [5, 21] was 0%, the pest or weed control at 62 g/ha [5, 22] was 0% and the “Ragweed plant response rating” value [5, 16] was 0. The “Ragweed plant response rating” value [5, 17] was 0, the pest or weed control at 31 g/ha ([6]; Helianthus annuus, pre-emergence, 31 g ai/ha, scale 0 to 100 (0 no effect, 100 complete control), read-out: Plant response rating, Sunflower) was 0% and the pest or weed control at 62 g/ha ([6]; Helianthus annuus, pre-emergence, 62 g ai/ha, 0 to 100 scale, 0 no effect, 100 complete control, read-out: Plant response rating, Sunflower) was 0%. The “Sunflower plant response rating” value ([6]; 8 g ai/ha) was 0, the “Sunflower plant response rating” value ([6]; 16 g ai/ha) was 0 and the pest or weed control at 31 g/ha ([7]; Galium aparine, pre-emergence, 31 g ai/ha, scale 0 to 100 (0 no effect, 100 complete control), read-out: Plant response rating, Galium) was 0%. The pest or weed control at 62 g/ha ([7]; Galium aparine, pre-emergence, 62 g ai/ha, 0 to 100 scale, 0 no effect, 100 complete control, read-out: Plant response rating, Galium) was 0%, the “Galium plant response rating” value ([7]; 8 g ai/ha) was 0 and the “Galium plant response rating” value ([7]; 16 g ai/ha) was 0. The “Oat, Wild plant response rating” value [8, 15] was 0, the “Oat, Wild plant response rating” value [8, 18] was 30 and the pest or weed control at 31 g/ha [8, 19] was 85%. It also gave a pest or weed control at 62 g/ha [8, 20] of 98%, a pest or weed control at 31 g/ha [8, 21] of 40% and a pest or weed control at 62 g/ha [8, 22] of 50%. The “Oat, Wild plant response rating” value [8, 16] was 0, the “Oat, Wild plant response rating” value [8, 17] was 0 and the “Bromegrass, Downy plant response rating” value [9, 15] was 0. The pest or weed control at 16 g/ha ([9]; Bromus tectorum, post-emergence, Postemergence, 16 g ai/ha, scale 0 to 100, read-out: Plant response rating, Bromegrass, Downy) was 10%, the pest or weed control at 31 g/ha ([9]; Bromus tectorum, post-emergence, Postemergence, scale 0 to 100, read-out: Plant response rating, Bromegrass, Downy) was 30% and the pest or weed control at 62 g/ha ([9]; Bromus tectorum, post-emergence, Postemergence, scale 0 to 100, 0 no effect, read-out: Plant response rating, Bromegrass, Downy) was 50%. For the same molecule, the pest or weed control at 31 g/ha ([9]; Bromus tectorum, pre-emergence, Preemergence, scale 0 to 100 (0 no effect, 100 complete control), read-out: Plant response rating, Bromegrass, Downy) was 50%, the pest or weed control at 62 g/ha ([9]; Bromus tectorum, pre-emergence, Preemergence, 0 to 100 scale, 0 no effect, read-out: Plant response rating, Bromegrass, Downy) was 80% and the “Bromegrass, Downy plant response rating” value [9, 16] was 0. For the same molecule, the “Bromegrass, Downy plant response rating” value [9, 17] was 20, the “Ryegrass, Italian plant response rating” value [10, 15] was 30 and the “Ryegrass, Italian plant response rating” value [10, 18] was 50. The pest or weed control at 31 g/ha [10, 19] was 95%, the pest or weed control at 62 g/ha [10, 20] was 98% and the pest or weed control at 31 g/ha [10, 21] was 98%. For the same molecule, the pest or weed control at 62 g/ha [10, 22] was 98%, the “Ryegrass, Italian plant response rating” value [10, 16] was 0 and the “Ryegrass, Italian plant response rating” value [10, 17] was 30. The “Pigweed plant response rating” value [11, 15] was 0, the “Pigweed plant response rating” value [11, 18] was 0 and the pest or weed control at 31 g/ha [11, 19] was 0%. For the same molecule, the pest or weed control at 62 g/ha [11, 20] was 0%, the pest or weed control at 31 g/ha [11, 21] was 0% and the pest or weed control at 62 g/ha [11, 22] was 0%. For the same molecule, the “Pigweed plant response rating” value [11, 16] was 0, the “Pigweed plant response rating” value [11, 17] was 0 and the “Nightshade, E. B. plant response rating” value ([12]; 8 g ai/ha) was 0. The “Nightshade, E. B. plant response rating” value ([12]; 16 g ai/ha) was 0, the pest or weed control at 31 g/ha ([12]; Solanum, pre-emergence, 31 g ai/ha, scale 0 to 100 (0 no effect, 100 complete control), read-out: Plant response rating, Nightshade, E. B.) was 0% and the pest or weed control at 62 g/ha ([12]; Solanum, pre-emergence, 62 g ai/ha, 0 to 100 scale, 0 no effect, 100 complete control, read-out: Plant response rating, Nightshade, E. B.) was 0%. For the same molecule, the pest or weed control at 62 g/ha ([13]; 62 g ai/ha) was 0%, the pest or weed control at 250 g/ha ([13]; 250 g ai/ha) was 0% and the plant injury at 62 g/ha ([14]; 62 g ai/ha) was 0%. For the same molecule, the plant injury at 250 g/ha ([14]; 250 g ai/ha) was 0%.
